Source: publication PMC9993459, “A novel selective spleen tyrosine kinase inhibitor SKI-O-703 (cevidoplenib) ameliorates lupus nephritis and serum-induced arthritis in murine models” (Clinical and Experimental Immunology, 2022)
Entries after “also recorded” stand apart in the source; their conditions may differ.

Experiments:
[1] = target: Syk (Homo sapiens, UniProt P43405); assay: Kinase assay (LANCE Ultra TR-FRET), Syk; type: biochemical
Protocol: (§1) Kinase assays were conducted in 384-well plates using LANCE ultra 66 time-resolved fluorescence resonance energy transfer (TR-FRET) methods, according to the manufacturer’s instructions (Perkin-Elmer). In brief, each kinase was pre-incubated with a serially diluted compound for 30 min, incubated with ULight poly-GT peptide substrate and ATP for up to 1 h. Thirty minutes after adding Eu-labeled anti-phosphopeptides Ab diluted in LANCE Detection Buffer, LANCE signals were measured with an EnVision multilabel reader (Perkin-Elmer).

[2] = target: AuroraB (Homo sapiens, UniProt Q96GD4); assay: Kinase assay (LANCE Ultra TR-FRET), AuroraB; type: biochemical
Protocol: as §1

[3] = target: FLT3 (Homo sapiens, UniProt P36888); assay: Kinase assay (LANCE Ultra TR-FRET), FLT3; type: biochemical
Protocol: as §1

[4] = target: T1, Zap70 (Homo sapiens, UniProt P43403); assay: Immunoblotting of Zap70 phosphorylation in TCR-stimulated T cells; type: cell-based; conditions: 0.3–10 μM
T1 construct: endogenous in cells; host or cells: human peripheral T cells sorted from PBMC, stimulated with anti-CD3 and anti-CD28

[5] = target: T2, phosphorylated Syk (p-Syk) in THP-1 cells (Homo sapiens, UniProt P43405); assay: p-Syk ELISA in IgG-stimulated THP-1 cells (FcγR signal); type: cell-based
T2 construct: endogenous in cells; host or cells: Ramos (ATCC), THP-1 (ATCC), human CD14+ monocytes (Lonza)
Protocol: THP-1 and Ramos cell lines and human CD14^+ monocytes were purchased from the American Type Culture Collection (ATCC) and Lonza, respectively. After treatment with Syk inhibitors for 1 h, THP-1 cells and monocytes were stimulated for 15 min with 100 μg/ml human IgG (Invitrogen), and Ramos cells were stimulated with 2 μg/ml anti-human IgM monoclonal Ab (mAb) (Bathyl). Cells were lysed in RIPA buffer containing 1% NP-40, 1% sodium deoxycholate, 0.1% SDS, and a mixture of protease and phosphatase inhibitors (Thermo Scientific). The lysates were assayed by standard immunoblotting methods and ELISA. Primary Abs used for immunoblotting were anti-phospho-Syk ([…]), anti-phospho-Vav (Y174), anti-phospho-PLCγ1 (Y1217) and anti-phospho-BLNK (Y96) Abs (all from Cell Signaling). ELISAs to detect phospho-Syk (Y525/526) were performed according to the manufacturer’s protocol (Cell Signaling).
Ramos cells (A), human primary monocytes (B), and THP cells (C) were pretreated with inhibitors at the indicated concentrations and stimulated with anti-human IgM (A) and human IgG (B and C). […] The relative intensities of protein phosphorylation levels were quantitated with reference to each lane of β-actin control bands. (D) Ramos cells, human primary monocytes, and THP cells were treated as in A–C for 24 h and levels of phosphorylated Syk (p-Syk) were measured by ELISA.

[6] = target: FGFR2 (Homo sapiens, UniProt P21802); assay: Kinase assay (LANCE Ultra TR-FRET), FGFR2; type: biochemical
Protocol: as §1

[7] = tested on: human peripheral T cells; assay: IL-2 production by activated T cells (ELISA); type: cell-based; conditions: fold lower than tofacitinib
Protocol: Supplementary F igure 1. SKI -O-592 and - 703 s p a re TCR- mediated signaling in T cells
(A) The stru cture of SKI-O-703. (B-D) Human per ipheral T cells sorted fro m human peripheral blood mononuclear cells (B and D) and mouse primary T cells sorted from spleen (C ) wer e stimulated with 5 µ g/ml anti- CD3 and 2 µ g/ml anti- CD28 m Abs in the presence or absence of inhibitors as indicated. Af ter one hour (B) and 24 h ours (C and D) of culture, cells we re assaye d […]
by immunoblotting (B), FA C S ( C), and ELISA (D). […]
of Zap70 and its downstream target PLCγ1. It’s effect on the suppression of IL-2 production […]
Supplementary F igure 2. Gating strategy for FACS of spleen cells
Erythrocyte-d epleted mo use spleen cells w ere assayed by FACS. Whole live cells were gated as shown: plasma cells (C D19lo/- CD138hi), GC B cells (CD19+ CD138- GL-7h i FA S hi), follicular B cells (CD19+ CD43- CD23hi CD21-), marginal zone B cells (CD19+ C D43- CD21hi CD23lo ), and Tfh cells (CD4+ CXCR5+ PD-1hi).
Supplementary Figure 3. Differential susceptibility of short-lived and long-lived plasma […]
When spleen cells from NZB/W mice were assay ed by FACS as in Fig. 5, they were stained intracellularly with anti- Ki-67 mAb to distinguish Ki-67+ dividing cells from Ki-67- non-dividing cells among t h e CD138hi population. […]

Chain of FGFR2 (P21802 22-821, species assumed): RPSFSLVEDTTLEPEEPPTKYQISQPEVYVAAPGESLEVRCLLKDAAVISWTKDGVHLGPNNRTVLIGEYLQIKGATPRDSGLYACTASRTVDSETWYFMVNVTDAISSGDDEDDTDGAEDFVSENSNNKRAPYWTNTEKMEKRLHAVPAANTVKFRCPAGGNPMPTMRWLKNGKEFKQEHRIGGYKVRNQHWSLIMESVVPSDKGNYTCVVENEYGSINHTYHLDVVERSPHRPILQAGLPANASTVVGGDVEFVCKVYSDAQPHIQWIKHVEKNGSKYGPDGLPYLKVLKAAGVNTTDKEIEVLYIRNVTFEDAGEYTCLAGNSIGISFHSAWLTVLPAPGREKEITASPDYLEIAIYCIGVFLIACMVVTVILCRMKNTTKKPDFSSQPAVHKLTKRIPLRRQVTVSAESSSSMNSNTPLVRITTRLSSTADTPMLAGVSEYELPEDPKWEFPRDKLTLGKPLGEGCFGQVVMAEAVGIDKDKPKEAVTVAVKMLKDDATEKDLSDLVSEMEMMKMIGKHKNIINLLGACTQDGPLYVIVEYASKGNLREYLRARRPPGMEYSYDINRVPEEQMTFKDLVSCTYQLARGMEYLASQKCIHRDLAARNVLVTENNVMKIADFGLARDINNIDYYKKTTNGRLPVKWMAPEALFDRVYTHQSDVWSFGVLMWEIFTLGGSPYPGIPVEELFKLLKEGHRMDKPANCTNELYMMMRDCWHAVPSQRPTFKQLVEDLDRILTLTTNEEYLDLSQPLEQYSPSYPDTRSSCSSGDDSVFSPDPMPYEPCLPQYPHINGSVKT
Chain of AuroraB (Q96GD4 whole entry): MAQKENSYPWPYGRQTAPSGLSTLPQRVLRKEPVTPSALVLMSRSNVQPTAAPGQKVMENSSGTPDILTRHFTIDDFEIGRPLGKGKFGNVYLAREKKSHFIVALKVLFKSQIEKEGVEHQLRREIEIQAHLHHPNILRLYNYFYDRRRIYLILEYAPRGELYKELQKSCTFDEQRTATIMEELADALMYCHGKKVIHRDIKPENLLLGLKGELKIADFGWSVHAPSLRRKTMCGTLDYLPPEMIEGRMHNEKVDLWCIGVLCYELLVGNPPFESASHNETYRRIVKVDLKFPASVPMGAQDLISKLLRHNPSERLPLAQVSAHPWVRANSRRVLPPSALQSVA
T1 sequence (P43403 whole entry): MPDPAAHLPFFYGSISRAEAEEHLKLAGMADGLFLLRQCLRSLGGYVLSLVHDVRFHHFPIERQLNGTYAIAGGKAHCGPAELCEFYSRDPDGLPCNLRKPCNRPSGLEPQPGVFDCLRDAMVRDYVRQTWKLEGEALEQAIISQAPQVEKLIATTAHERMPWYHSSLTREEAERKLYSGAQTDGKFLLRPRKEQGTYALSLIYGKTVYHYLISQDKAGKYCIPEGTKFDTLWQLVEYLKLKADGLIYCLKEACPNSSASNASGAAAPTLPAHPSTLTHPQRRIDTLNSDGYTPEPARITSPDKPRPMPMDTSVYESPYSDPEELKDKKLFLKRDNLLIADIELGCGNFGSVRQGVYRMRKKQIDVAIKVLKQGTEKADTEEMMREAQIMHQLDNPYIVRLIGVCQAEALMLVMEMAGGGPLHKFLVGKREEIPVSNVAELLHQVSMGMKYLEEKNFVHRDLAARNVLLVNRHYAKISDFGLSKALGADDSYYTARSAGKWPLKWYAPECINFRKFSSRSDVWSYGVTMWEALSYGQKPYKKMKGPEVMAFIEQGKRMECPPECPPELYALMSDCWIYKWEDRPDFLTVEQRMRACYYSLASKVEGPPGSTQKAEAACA
Chain of FLT3 (P36888 27-993, species assumed): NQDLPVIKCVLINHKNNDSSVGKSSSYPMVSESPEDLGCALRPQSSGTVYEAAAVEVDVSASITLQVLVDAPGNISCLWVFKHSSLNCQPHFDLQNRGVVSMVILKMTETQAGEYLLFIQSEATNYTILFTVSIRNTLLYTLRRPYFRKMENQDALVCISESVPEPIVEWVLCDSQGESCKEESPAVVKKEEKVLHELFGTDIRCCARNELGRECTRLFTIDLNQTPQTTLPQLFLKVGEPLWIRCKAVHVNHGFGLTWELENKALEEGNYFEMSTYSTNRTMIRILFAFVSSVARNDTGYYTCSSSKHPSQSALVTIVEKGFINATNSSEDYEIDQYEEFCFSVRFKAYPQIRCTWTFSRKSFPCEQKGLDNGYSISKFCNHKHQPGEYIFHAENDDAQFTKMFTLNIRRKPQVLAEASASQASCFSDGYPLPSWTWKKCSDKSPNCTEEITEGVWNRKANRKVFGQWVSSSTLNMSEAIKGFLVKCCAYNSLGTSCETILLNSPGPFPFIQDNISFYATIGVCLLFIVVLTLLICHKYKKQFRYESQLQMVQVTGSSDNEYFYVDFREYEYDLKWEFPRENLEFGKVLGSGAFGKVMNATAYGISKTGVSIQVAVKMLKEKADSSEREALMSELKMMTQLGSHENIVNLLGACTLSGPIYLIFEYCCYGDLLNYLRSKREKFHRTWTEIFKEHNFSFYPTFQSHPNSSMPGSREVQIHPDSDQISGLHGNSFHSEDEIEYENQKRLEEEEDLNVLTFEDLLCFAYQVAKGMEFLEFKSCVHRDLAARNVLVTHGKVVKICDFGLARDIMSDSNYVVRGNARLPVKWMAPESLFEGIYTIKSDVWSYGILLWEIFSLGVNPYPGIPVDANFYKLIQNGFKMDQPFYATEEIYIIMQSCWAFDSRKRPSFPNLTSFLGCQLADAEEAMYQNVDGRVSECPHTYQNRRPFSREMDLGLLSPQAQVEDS

Cc1nn(-c2ccnc(Nc3ccc4c(c3)c(C(=O)C3CC3)cn4C)n2)cc1CN1C[C@H](O)CO1 [SKI-O-592]
Ratio to Syk (Syk) ([1]; IC50 ratio to Syk): 1.0 | IC50 against all other kinases tested relative to Syk ([1]; fold higher than against Syk): 67- to 2753 fold | IC50 ([1]; kinase activity, TR-FRET): 6.2 nM | Potency as Syk kinase inhibitor relative to R406 ([1]; more potent than R406): approximately 9 fold | Ratio to Syk (AuroraB) ([2]; IC50 ratio to Syk): >1623 | IC50 ([2]; kinase activity, TR-FRET): > 10000 nM | Ratio to Syk (FLT3) ([3]; IC50 ratio to Syk): 289 | IC50 ([3]; kinase activity, TR-FRET): 1780 nM | Phosphorylation of Zap70 and its downstream target PLCγ1 [4]: did not inhib it phosphorylation; also recorded: failed to affect | IC50 [5]: 266 nM | Ratio to Syk (FGFR2) ([6]; IC50 ratio to Syk): >1623 | IC50 ([6]; kinase activity, TR-FRET): > 10000 nM | Potency on IL-2 production relative to tofacitinib (IC50) [7]: 25 fold
